The test deals with P388 leukemia ip, CD2F1 mice, survival T/C. As to the kind of experiment: NCI In Vivo Anticancer Drug Screen. Data for tumor model P388 Leukemia (intraperitoneal) in CD2F1 (CDF1) mice. The note with it: endpoint: median survival time, higher = longer survival. The procedure, abridged:
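Mice carrying the transplanted tumor received test compound or vehicle. Survival was recorded in each group, and the value is the treated-group measurement divided by that of the vehicle-treated control group.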

Setting [1] is: dose: 12.5 mg/kg/injection, schedule: Q01DX009 (ip), vehicle: saline.
Setting [2] is: dose: 25.0 mg/kg/injection, schedule: Q01DX009 (ip), vehicle: saline.
Setting [3] is: dose: 50.0 mg/kg/injection, schedule: Q01DX009 (ip), vehicle: saline.
[4] abbreviates: dose: 100.0 mg/kg/injection, schedule: Q01DX009 (ip), vehicle: saline.
Where [5] appears, read: dose: 100.0 mg/kg/injection, schedule: Q04DX002 (ip), vehicle: Klucel (hydroxypropylcellulose) (HPC).
Where [6] appears, read: dose: 200.0 mg/kg/injection, schedule: Q04DX002 (ip), vehicle: Klucel (hydroxypropylcellulose) (HPC).
Where [7] appears, read: dose: 12.5 mg/kg/injection, schedule: Q01DX009 (ip), vehicle: distilled water + Tween-80.
Where [8] appears, read: dose: 12.5 mg/kg/injection, schedule: Q01DX009 (ip), vehicle: water.
The mark [9] stands for this setting: dose: 25.0 mg/kg/injection, schedule: Q01DX009 (ip), vehicle: distilled water + Tween-80.
Setting [10] is: dose: 50.0 mg/kg/injection, schedule: Q01DX009 (ip), vehicle: distilled water + Tween-80.
Where [11] appears, read: dose: 50.0 mg/kg/injection, schedule: Q01DX009 (ip), vehicle: water.
Where [12] appears, read: dose: 200.0 mg/kg/injection, schedule: Q01DX009 (ip), vehicle: saline.

Where “and” joins values, the source holds several entries; their conditions need not be identical. Identical values can stand only once. Inconclusive results and toxic doses are left out.

Turning to `COC(=O)C(CC(C)C)NC(=O)C(Cc1c[nH]c2ccccc12)NC(=O)OC(C)(C)C` (stereo not drawn), the T/C runs as follows: (dose: 10.7 mg/kg/injection, schedule: Q01DX009 (ip), vehicle: other) 100 % of control; (dose: 21.3 mg/kg/injection, schedule: Q01DX009 (ip), vehicle: other) 93 % of control; (dose: 42.5 mg/kg/injection, schedule: Q01DX009 (ip), vehicle: other) 93 % of control; (dose: 85.0 mg/kg/injection, schedule: Q01DX009 (ip), vehicle: other) 93 % of control; (dose: 170.0 mg/kg/injection, schedule: Q01DX009 (ip), vehicle: other) 98 % of control.
Turning to `O=C1C(CCl)=CS(=O)(=O)c2ccccc21`, the T/C runs as follows: (dose: 6.25 mg/kg/injection, schedule: Q01DX009 (ip), vehicle: saline) 109 % of control; under setting [1], 116 % of control; under setting [2], 100 % of control.
Turning to `O=C(O)C12CC3CC(CC(C3)C1)C2.O=C(O)C12CC3CC(CC(C3)C1)C2.O=C(O)C12CC3CC(CC(C3)C1)C2.O=C(O)C12CC3CC(CC(C3)C1)C2.[Rh].[Rh]`, the T/C under setting [1] was 94 % of control; the T/C under setting [2] was 91 % of control and 93 % of control; the T/C under setting [3] is 100 % of control and 88 % of control; the T/C (dose: 50.0 mg/kg/injection, schedule: Q01DX009 (ip), vehicle: suspension in saline) is 101 % of control; the T/C under setting [4] was 91 % of control; the T/C (dose: 100.0 mg/kg/injection, schedule: Q01DX009 (ip), vehicle: suspension in saline) was 120 % of control. Besides, under “dose: 200.0 mg/kg/injection, schedule: Q01DX009 (ip), vehicle: suspension in saline”, the T/C was 108 % of control.
Consider `COc1cccc2c1-c1nc(N)c3c(OC)cccc3c1C2=O`, for which the T/C under setting [5] was 106 % of control; the T/C under setting [6] is 108 % of control; the T/C (dose: 400.0 mg/kg/injection, schedule: Q04DX002 (ip), vehicle: Klucel (hydroxypropylcellulose) (HPC)) was 107 % of control.
Take `CCCC(=O)Oc1ccc[nH]c1=O`: the T/C is, setting by setting: (dose: 3.13 mg/kg/injection, schedule: Q01DX009 (ip), vehicle: distilled water + Tween-80) 100 % of control; (dose: 3.13 mg/kg/injection, schedule: Q01DX009 (ip), vehicle: water) 92 % of control; (dose: 6.25 mg/kg/injection, schedule: Q01DX009 (ip), vehicle: distilled water + Tween-80) 107 % of control; (dose: 6.25 mg/kg/injection, schedule: Q01DX009 (ip), vehicle: water) 92 % of control; under setting [7], 106 % of control; under setting [8], 92 % of control. In addition, the T/C is, setting by setting: under setting [9], 100 % of control; (dose: 25.0 mg/kg/injection, schedule: Q01DX009 (ip), vehicle: water) 99 % of control and 107 % of control; under setting [10], 109 % of control; under setting [11], 114 % of control; (dose: 100.0 mg/kg/injection, schedule: Q01DX009 (ip), vehicle: water) 114 % of control; (dose: 200.0 mg/kg/injection, schedule: Q01DX009 (ip), vehicle: water) 115 % of control.
For `CC1CC2(OC2C)C(=O)OC2CCN(C)C/C=C(/COC(=O)C1(C)O)C2=O` (stereo not drawn), the T/C is, setting by setting: (dose: 3.12 mg/kg/injection, schedule: Q01DX009 (ip), vehicle: Klucel (hydroxypropylcellulose) (HPC)) 105 % of control; (dose: 6.25 mg/kg/injection, schedule: Q01DX009 (ip), vehicle: Klucel (hydroxypropylcellulose) (HPC)) 99 % of control; (dose: 12.5 mg/kg/injection, schedule: Q01DX009 (ip), vehicle: Klucel (hydroxypropylcellulose) (HPC)) 103 % of control; (dose: 25.0 mg/kg/injection, schedule: Q01DX009 (ip), vehicle: Klucel (hydroxypropylcellulose) (HPC)) 99 % of control; (dose: 40.0 mg/kg/injection, schedule: Q01DX009 (ip), vehicle: Klucel (hydroxypropylcellulose) (HPC)) 110 % of control; (dose: 50.0 mg/kg/injection, schedule: Q04DX002 (ip), vehicle: saline) 108 % of control. The T/C by setting is: (dose: 80.0 mg/kg/injection, schedule: Q01DX009 (ip), vehicle: Klucel (hydroxypropylcellulose) (HPC)) 110 % of control; (dose: 100.0 mg/kg/injection, schedule: Q04DX002 (ip), vehicle: saline) 101 % of control; (dose: 160.0 mg/kg/injection, schedule: Q01DX009 (ip), vehicle: Klucel (hydroxypropylcellulose) (HPC)) 100 % of control; (dose: 200.0 mg/kg/injection, schedule: Q04DX002 (ip), vehicle: saline) 106 % of control.
`COc1ccc2ncc(COC(=O)NCCCl)c(COC(=O)NCCCl)c2c1`: the T/C is 92 % of control (dose: 25.0 mg/kg/injection, schedule: Q01DX005 (ip), vehicle: Klucel (hydroxypropylcellulose) (HPC)); 86 % of control (dose: 50.0 mg/kg/injection, schedule: Q01DX005 (ip), vehicle: Klucel (hydroxypropylcellulose) (HPC)); 88 % of control (dose: 100.0 mg/kg/injection, schedule: Q01DX005 (ip), vehicle: Klucel (hydroxypropylcellulose) (HPC)); 86 % of control (dose: 200.0 mg/kg/injection, schedule: Q01DX005 (ip), vehicle: Klucel (hydroxypropylcellulose) (HPC)).
On to `O=S1(=O)OCCO1`, for which the T/C (dose: 12.5 mg/kg/injection, schedule: Q01DX005 (ip), vehicle: saline) was 106 % of control and the T/C (dose: 25.0 mg/kg/injection, schedule: Q01DX005 (ip), vehicle: saline) was 108 % of control.
Turning to `CC1(C)CC(NC(=O)CCl)CC(C)(C)N1O`, the T/C reads like this: under setting [3], 93 % of control; under setting [4], 91 % of control; under setting [12], 102 % of control.
Take `CC1CC(=O)N1C(=O)CCN=C=S` (stereo not drawn): the T/C was 111 % of control (dose: 60.0 mg/kg/injection, schedule: Q01DX005 (ip), vehicle: saline with Tween-80); 120 % of control (dose: 120.0 mg/kg/injection, schedule: Q01DX005 (ip), vehicle: saline with Tween-80); 117 % of control (dose: 240.0 mg/kg/injection, schedule: Q01DX005 (ip), vehicle: saline with Tween-80).
Consider `O=[N+]([O-])c1ccccc1N=Nc1c(-c2ccccc2)nn(C(=S)S)c1-c1ccccc1`, for which the T/C by setting is: (dose: 25.0 mg/kg/injection, schedule: Q04DX002 (ip), vehicle: Klucel (hydroxypropylcellulose) (HPC)) 99 % of control; (dose: 50.0 mg/kg/injection, schedule: Q04DX002 (ip), vehicle: Klucel (hydroxypropylcellulose) (HPC)) 101 % of control; under setting [5], 105 % of control; under setting [6], 112 % of control.
`CCCC(C)Br` (stereo not drawn): the T/C under setting [4] was 109 % of control; the T/C under setting [12] was 114 % of control; the T/C (dose: 400.0 mg/kg/injection, schedule: Q01DX009 (ip), vehicle: saline) was 115 % of control.
In the case of `O=C(Nc1nncs1)C(F)(F)F`, the T/C reads like this: under setting [7], 111 % of control; under setting [8], 109 % of control; under setting [9], 118 % of control; under setting [10], 163 % of control; under setting [11], 159 % of control.
As for `COc1ccc(C(c2cc3c(cc2O)OCO3)N2CCOCC2)c(OC)c1` (stereo not drawn), the T/C by setting is: (dose: 60.0 mg/kg/injection, schedule: Q01DX005 (ip), vehicle: Klucel (hydroxypropylcellulose) (HPC)) 101 % of control; (dose: 120.0 mg/kg/injection, schedule: Q01DX005 (ip), vehicle: Klucel (hydroxypropylcellulose) (HPC)) 99 % of control; (dose: 240.0 mg/kg/injection, schedule: Q01DX005 (ip), vehicle: Klucel (hydroxypropylcellulose) (HPC)) 110 % of control.
As for `O=[N+]([O-])c1ccc(C(S(=O)(=O)Cc2ccccc2)S(=O)(=O)Cc2ccccc2)cc1`, the T/C was 93 % of control (dose: 50.0 mg/kg/injection, schedule: Q01DX009 (ip), vehicle: Klucel (hydroxypropylcellulose) (HPC)); 89 % of control (dose: 100.0 mg/kg/injection, schedule: Q01DX009 (ip), vehicle: Klucel (hydroxypropylcellulose) (HPC)); 90 % of control (dose: 200.0 mg/kg/injection, schedule: Q01DX009 (ip), vehicle: Klucel (hydroxypropylcellulose) (HPC)).
Regarding `O=C1CC2CCC(C1)N2C(=O)Oc1ccccc1`, the T/C runs as follows: (dose: 100.0 mg/kg/injection, schedule: Q01DX001 (ip), vehicle: Klucel (hydroxypropylcellulose) (HPC)) 101 % of control; (dose: 200.0 mg/kg/injection, schedule: Q01DX001 (ip), vehicle: Klucel (hydroxypropylcellulose) (HPC)) 93 % of control; (dose: 400.0 mg/kg/injection, schedule: Q01DX001 (ip), vehicle: Klucel (hydroxypropylcellulose) (HPC)) 92 % of control.

The record behind these values is PubChem BioAssay AID330 (DTP/NCI, 2004).
